Results as given in patent publication US20260297081A1, “COMPOUNDS AND METHODS OF TREATING CANCERS” (Cullgen Inc., priority 2023, published 2026).
Where two headings read alike, the source gives them in different places.

Assays:
Calu-1 cells [1] = test: Anti-proliferation (viability) of NSCLC Calu-1 cells, 3 days (Table 7, FIG. 2B); format: cell-based; conditions: for IC50: Homo sapiens, 72 h, Calu-1 cells, 3 days, 10-point serial dilution, read-out: GI IC50 in Calu-1
Procedure, shortened: (§1)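 Cells treated with heterobifunctional compounds in 10-point serial dilution, then viability measured; Calu-1 NSCLC cells exposed for 3 days, ER+ T47D breast cancer cells for 6 days.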

T47D cells [2] = test: Anti-proliferation (viability) of ER+ breast cancer T47D cells, 6 days (Table 7, FIG. 2B); format: cell-based; conditions: for IC50: Homo sapiens, 144 h, T47D cells, 6 days, 10-point serial dilution, read-out: GI IC50 in T47D
Procedure, shortened: as §1

MCF7 cells [3] = test: Anti-proliferation (viability) of MCF7 cells (Table 7, FIG. 2B); format: cell-based; conditions: for IC50: Homo sapiens, MCF7, MCF7 cells, 3-6 days, 10-point serial dilution, read-out: GI IC50 in MCF-7
T47D parental cells = test: CellTiter-Lumi cell viability assay, T47D parental cells, 6 days (FIG. 4); format: cell-based; conditions: Homo sapiens, 144 h
Procedure: (§2) Furthermore, we developed one ER^+ breast cancer T47D model with acquired resistance after long period of treatment with 1 μM palbociclib (over IC90). Cells were deemed resistant when growing in the presence of palbo at the same rate as parental cells. Palbo resistance was determined by CellTiter-Lumi cell viability assay (FIG. 4, IC50>10,000 nM).

[4] = tested on: T47D palbo-resistant cells; test: CellTiter-Lumi cell viability assay, T47D palbo-resistant cells, 6 days (FIG. 4); format: cell-based; conditions: Homo sapiens, 144 h
Procedure: as §2

[5] = Pharmacokinetics in mice, single dose i.v. injection or oral gavage (FIG. 5); format: in vivo; conditions: mouse, plasma
Procedure: To investigate the pharmacokinetics of heterobifunctional compounds, exemplified by CPD-39, a single dose of CPD-39 via 1 mg/kg intravenous (i.v.) injection or 10 mg/kg was evaluated in mice. Plasma concentration reported at each time points post dosing represents the mean value derived from 3 experimental animals.

[6] = tested on: T47D palbo-resistant cells; test: Cell viability in T47D palbociclib-resistant model (FIG. 4); format: cell-based; conditions: 10-point serial dilution, 6 days
Procedure: T47D cells were cultured long-term to resistance in the presence of 1 μM Palbociclib. Palbo resistance was determined by CellTiter-Lumi cell viability assay. T47D parental or palbo-resistant cells were treated with palbociclib, or heterobifunctional compounds CPD-10 or CPD-39 following a 10-point serial dilution for 6 days.
Calu-1, T47D, MCF7, HCC1428 and other cells were cultured at 37° C. with 5% CO2 in RPMI 1640 or DMEM medium supplemented with 10% fetal bovine serum. Cells were authenticated using the short tandem repeat (STR) assays. Mycoplasma test results were negative. For palbo-resistant cell model, T47D cells were cultured long-term to resistance in the presence of 1 μM Palbociclib. Cells were deemed resistant when growing in the presence of Palbo at the same rate as parental cells.
(§3) Cells were seeded at a density of 2,000-5,000 cells per well in 96-well assay plates and treated with test compounds following a 10-point serial dilution for 3-6 days. Cell viability was determined using the CellTiter-Lumi assay kit according to the manufacturer's instructions. The dose-response curves were determined and IC50 values were calculated using the GraphPad Prism software following a nonlinear regression (least squares fit) method. Data presented was mean±standard deviation (SD)unless otherwise indicated.

[7] = Mouse pharmacokinetics (FIG. 5); format: in vivo, male Swiss Albino mice; conditions: plasma, po, mice, 1 mg/kg i.v. and 10 mg/kg p.o., over 12 hours
Procedure: A single dose of CPD-39 via 1 mg/kg intravenous (i.v.) injection or 10 mg/kg oral (p.o.) gavage was evaluated in mice. Plasma concentration of CPD-39 reported at each time points post dosing (5 min, 15 min, 30 min, 1 h, 2 h, 4 h, and 8 h via i.v.; 15 min, 30 min, 1 h, 2 h, 4 h, 6 h, 8 h, and 12 h via p.o.) represents the mean value derived from 3 experimental animals.
Standard PK studies were conducted using male Swiss Albino mice by Sai Life Sciences. A single dose of test compound via intravenous (i.v.) injection or oral (p.o.) gavage was evaluated in fed mice. Plasma concentration of test compound reported at each time points represents the mean value derived from 3 experimental animals. Error bars represent +SD.

CDK4 = CDK4 (Homo sapiens, UniProt P11802+Q16531); test: CDK4 percentage degradation in Calu-1 cells (Table 6); format: cell-based; set-up: Cells that express cyclin D1-3 and CDK4/6 proteins were treated with heterobifunctional compounds; endogenous in cells; host or cells: Calu-1; conditions: 16 hours; for inhibition at 0.04 µM: 40 nM; for inhibition at 0.2 µM: 200 nM
Procedure, shortened: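 Percentage degradation of Cyclin D1 and CDK4 derived from densitometry of ECL Western blots on lysates of Calu-1 cells. Treatment was 16 h with compound at either 40 nM or 200 nM.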

[8] = tested on: CCND1, CCND3, CDK4 in T47D cells; test: Immunoblot of CCND1, CCND3, CDK4 protein degradation in T47D cells (FIG. 2A, 48 hours); format: cell-based; conditions: negative control vs CPD-10
Procedure: Specific exemplary heterobifunctional compounds were characterized in Calu-1, MCF7, T47D and other cells. Cells that express cyclin D1-3 and CDK4/6 proteins were treated with heterobifunctional compounds disclosed herein at indicated concentrations. MCF7 cells were deprived of serum for 2 hours followed by the treatment with heterobifunctional compounds. Cells were collected, lysed and subject to immunoblotting using an antibody specific to CCND1, CCND2, CCND3, CDK4, or FoxM1, cyclin A2, or phosphorylated Rb (S807/811) proteins. Tubulin or GAPDH was used as the loading control. DMSO treatment was used as the negative control.
To verify that heterobifunctional compound-mediated degradation is dependent on the binding to CDK4-cyclin D complex, a negative control compound, CPD-143, which is derived from active heterobifunctional compound CPD-10 was designed. CPD-143 bears the same DDB1 ligand and linker as CPD-10 but with a modified warhead to impair the binding of the control compound to CDK4.

HCC1428 cells [9] = test: Flow cytometric analysis of Annexin V/7-AAD stained HCC1428 cells (apoptosis), 6 days (FIG. 3B); format: cell-based; conditions: HCC1428; 400 nM; 6 days
Procedure: (§4) T47D cells were treated with DMSO, palbociclib, heterobifunctional compound CPD-10 for 6 days at doses approximating IC50and IC90 concentrations as indicated (FIG. 3A). HCC1428 cells were treated with DMSO, palbociclib, heterobifunctional compound CPD-10, or its negative control compound CPD-143 for 6 days at doses approximating IC90 concentrations as indicated (FIG. 3B). Cells were harvested by trypsinization, staining was carried out using the Annexin V Apoptosis Detection Kit. The percentages of early apoptotic (Annexin V^+7-AAD^−, lower right quadrant), late apoptotic (Annexin V^+7-AAD^+, upper right quadrant) and necrotic cells (Annexin V^−7-AAD^+, upper left quadrant) are indicated on dot plots.

Calu-1 cells [10] = test: Cell viability / anti-proliferation assay, Calu-1 (Table 7, FIG. 2B); format: cell-based; conditions: 10-point serial dilution, 3-6 days
Procedure: (§5) NSCLC Calu-1 or ER+ breast cancer T47D cells were treated with selected heterobifunctional compounds following a 10-point serial dilution for 3 or 6 days, respectively.
(§6) Cells were treated with heterobifunctional compounds following a 10-point serial dilution for 3-6 days. In Calu-1 cells, A: anti-proliferation activity IC50≤10 nM; B: anti-proliferation activity IC50<50 nM, and ≥10 nM; C: anti-proliferation activity IC50≥50 nM. In T47D cells, A: anti-proliferation activity IC50≤50 nM; B: anti-proliferation activity IC50≤100 nM, and ≥50 nM; C: anti-proliferation activity IC50≥100 nM; -, data not available.
(§7) Calu-1, MCF7 or T47D cells were seeded in 96-well plates and treated with CPD-10, or CPD-143 following a 10-point serial dilution for 3-6 days (FIG. 2B).
(§8) Calu-1, T47D, MCF7, HCC1428 and other cells were cultured at 37° C. with 5% CO2 in RPMI 1640 or DMEM medium supplemented with 10% fetal bovine serum. […]
as §3, with “Data presented was mean±standard deviation (SD)unless otherwise indicated.” left out

T47D cells [11] = test: Cell viability / anti-proliferation assay, T47D (Table 7, FIG. 2B); format: cell-based; conditions: 10-point serial dilution, 3-6 days
Procedure: as §5, §6, §7, §8
as §3, with “Data presented was mean±standard deviation (SD)unless otherwise indicated.” left out

MCF7 cells [12] = test: Cell viability / anti-proliferation assay, MCF7 (Table 7, FIG. 2B); format: cell-based; conditions: 10-point serial dilution, 3-6 days
Procedure: as §5, §6, §7, §8
as §3, with “Data presented was mean±standard deviation (SD)unless otherwise indicated.” left out

CCND = CCND degradation in T47D cells with CPD-10 and negative control CPD-143 (FIG. 2A); format: cell-based; conditions: 48 hours, dose range
Procedure: (§9) T47D cells were treated with a dose range of heterobifunctional compound CPD-10, and its negative control compound CPD-143 for 48 hours (FIG. 2A).
(§10) Cultured cells were washed with cold PBS once and lysed in cold RIPA buffer supplemented with protease inhibitors and phosphatase inhibitors (Beyotime Biotechnology). The solutions were then incubated at 4 ? for 30 min with gentle agitation to fully lysed cells. Cell lysates were centrifuged at 13,000 rpm for 10 min at 4 ? and pellets were discarded. Total protein concentrations in the lysates were determined following BCA assays (Beyotime Biotechnology). Cell lysates were mixed with Laemmli loading buffer and heated at 99° C. for 5 min. Proteins were resolved on SDS-PAGE and visualized using Western ECL Substrate kits on a ChemiDoc MP Imaging system (Bio-Rad). Protein bands were quantitated using the Image Lab software provided by Bio-Rad.

T47D cells [13] = test: Downstream inhibition in T47D cells with CPD-10 and negative control CPD-143 (FIG. 2A); format: cell-based; conditions: 48 hours, dose range
Procedure: as §9, §10

HCC1428 cells [14] = test: Annexin V apoptosis flow cytometry, HCC1428 (FIG. 3B); format: cell-based; conditions: HCC1428, dose approximating IC90, 6 days
Procedure: as §4, with “IC50 and” for “IC50and”, “Kit.” for “Kit. The percentages of early apoptotic (Annexin V^+7-AAD^−, lower right quadrant), late apoptotic (Annexin V^+7-AAD^+, upper right quadrant) and necrotic cells (Annexin V^−7-AAD^+, upper left quadrant) are indicated on dot plots.”
Assays were performed on the CytoFLEX Cytometer (Beckman Coulter), and data were analyzed using CytExpert software. For cell death and apoptosis analysis, cells were harvested by trypsinization, staining was carried out using the Annexin V Apoptosis Detection Kit (BD Biosciences). Briefly, cells were resuspended in 1× binding buffer and incubated with fluorochrome-conjugated Annexin V and 7-AAD for 15 min in darkness at room temperature.

CDK4, sequence (P11802 2-303 limits assumed): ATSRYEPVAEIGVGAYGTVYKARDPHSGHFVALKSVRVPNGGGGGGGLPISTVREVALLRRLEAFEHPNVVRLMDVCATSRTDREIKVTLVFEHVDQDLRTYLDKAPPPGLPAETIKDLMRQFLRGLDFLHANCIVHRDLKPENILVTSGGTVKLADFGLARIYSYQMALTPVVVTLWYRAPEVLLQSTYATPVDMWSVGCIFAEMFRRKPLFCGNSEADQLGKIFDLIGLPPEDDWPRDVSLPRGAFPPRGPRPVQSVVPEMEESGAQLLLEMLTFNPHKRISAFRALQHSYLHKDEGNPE
CDK4, sequence (P24385 whole entry partner): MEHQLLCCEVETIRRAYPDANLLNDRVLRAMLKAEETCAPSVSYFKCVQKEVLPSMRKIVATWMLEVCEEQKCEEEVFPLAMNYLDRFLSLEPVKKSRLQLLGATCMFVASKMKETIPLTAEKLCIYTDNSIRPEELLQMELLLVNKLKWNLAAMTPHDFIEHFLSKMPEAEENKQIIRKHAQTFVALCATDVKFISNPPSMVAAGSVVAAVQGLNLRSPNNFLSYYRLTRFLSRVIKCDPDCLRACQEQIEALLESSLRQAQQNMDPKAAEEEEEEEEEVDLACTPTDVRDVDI
CDK4, sequence (Q16531 2-1140 limits assumed): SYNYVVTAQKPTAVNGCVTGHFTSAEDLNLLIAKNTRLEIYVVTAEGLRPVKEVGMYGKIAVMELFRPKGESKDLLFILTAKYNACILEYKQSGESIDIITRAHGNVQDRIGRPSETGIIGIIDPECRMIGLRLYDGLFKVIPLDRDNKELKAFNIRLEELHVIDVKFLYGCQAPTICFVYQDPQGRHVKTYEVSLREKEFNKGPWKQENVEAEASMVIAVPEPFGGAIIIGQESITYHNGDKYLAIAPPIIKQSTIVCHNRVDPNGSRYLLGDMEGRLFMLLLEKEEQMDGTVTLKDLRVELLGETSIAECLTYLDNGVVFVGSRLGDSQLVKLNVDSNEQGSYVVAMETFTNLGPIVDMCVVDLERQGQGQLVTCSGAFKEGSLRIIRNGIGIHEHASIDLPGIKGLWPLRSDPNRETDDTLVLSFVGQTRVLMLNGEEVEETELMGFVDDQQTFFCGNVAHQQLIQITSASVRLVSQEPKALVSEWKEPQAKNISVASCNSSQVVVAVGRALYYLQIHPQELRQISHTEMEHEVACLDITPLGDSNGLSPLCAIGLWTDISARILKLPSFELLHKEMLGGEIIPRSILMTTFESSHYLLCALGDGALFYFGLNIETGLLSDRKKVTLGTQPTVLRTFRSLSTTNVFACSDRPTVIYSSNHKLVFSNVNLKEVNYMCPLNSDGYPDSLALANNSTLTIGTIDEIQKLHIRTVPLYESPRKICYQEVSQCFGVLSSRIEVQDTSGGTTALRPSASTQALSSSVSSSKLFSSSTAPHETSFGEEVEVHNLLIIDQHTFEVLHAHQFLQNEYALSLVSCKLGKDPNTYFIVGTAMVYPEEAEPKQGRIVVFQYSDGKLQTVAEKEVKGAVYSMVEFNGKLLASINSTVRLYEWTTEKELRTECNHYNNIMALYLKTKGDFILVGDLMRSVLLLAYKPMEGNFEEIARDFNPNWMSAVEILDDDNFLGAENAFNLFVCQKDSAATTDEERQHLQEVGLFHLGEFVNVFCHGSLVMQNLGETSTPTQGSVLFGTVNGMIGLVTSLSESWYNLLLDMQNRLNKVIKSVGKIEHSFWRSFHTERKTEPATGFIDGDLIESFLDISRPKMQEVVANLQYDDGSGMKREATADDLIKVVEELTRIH

## CNc1ccc(C(=O)Nc2ccc(N(C)C)nn2)c(NC2CC3(CC(NC(=O)CN4CCN(c5ccc(Nc6ncc7c(C)c(C(C)=O)c(=O)n(C8CCCC8)c7n6)nc5)CC4)C3)C2)n1 (stereo not drawn) [CPD-39, 2-((6-(2-(4-(6-((6-Acetyl-8-cyclopentyl-5-methyl-7-oxo-7,8-dihydropyrido[2,3-d]pyrimidin-2-yl)amino)pyridin-3-yl)piperazin-1-yl)acetamido)spiro[3.3]heptan-2-yl)amino)-N-(6-(dimethylamino)pyridazin-3-yl)-6-(methylamino)nicotinamide]
Calu-1 cells [1]
  IC50: ≤ 0.01 µM
T47D cells [2]
  IC50: ≤ 0.05 µM
MCF7 cells [3]
  IC50: > 0.1 µM
T47D parental cells
  IC50: 0.0326 µM
[4]
  IC50: 0.0825 µM
[5]; iv, mice, 1 mg/kg i.v., read-out: AUCinf, i.v.
  AUC(0-inf): 1030 ng·h/mL
[5]; iv, mice, 1 mg/kg i.v., read-out: CL, i.v.
  clearance: 16.3 mL/min/kg
[5]; iv, mice, 1 mg/kg i.v., read-out: VSS, i.v.
  Vd: 1.6 L/kg
[5]; po, fed mice, 10 mg/kg p.o., read-out: AUCinf, p.o.
  AUC(0-inf): 1580 ng·h/mL
[5]; fed mice, 10 mg/kg oral vs 1 mg/kg i.v.
  bioavailability: > 15%
[6]
  cell viability in palbociclib-resistant model: remained effective in T47D palbo-resistant model
[7]
  bioavailability at 12 h: ~15%
CDK4
  inhibition at 0.04 µM: 50 to 80%
  inhibition at 0.2 µM: 50 to 80%

## CNc1ccc(C(=O)Nc2ccc(N(C)C)nn2)c(NCCCCCCCNC(=O)CN2CCN(c3ccc(N(C)c4ncc5c(C)c(C(C)=O)c(=O)n(C6CCCC6)c5n4)nc3)CC2)n1 [CPD-143, 2-((7-(2-(4-(6-((6-acetyl-8-cyclopentyl-5-methyl-7-oxo-7,8-dihydropyrido[2,3-d]pyrimidin-2-yl)(methyl)amino)pyridin-3-yl)piperazin-1-yl)acetamido)heptyl)amino)-N-(6-(dimethylamino)pyridazin-3-yl)-6-(methylamino)nicotinamide]
[8]
  fold decrease in DC50 (degradation potency) compared with CPD-10: > 100 -fold
Calu-1 cells [1]; Calu-1, negative control vs CPD-10, FIG. 2B
  fold decrease in cellular anti-proliferation activity compared with CPD-10: > 50 -fold
Calu-1 cells [1]
  IC50: ≥ 0.05 µM
T47D cells [2]
  IC50: ≥ 0.1 µM
T47D cells [2]; T47D, negative control vs CPD-10, FIG. 2B
  fold decrease in cellular anti-proliferation activity compared with CPD-10: > 50 -fold
MCF7 cells [3]
  IC50: > 0.1 µM
MCF7 cells [3]; MCF7, negative control vs CPD-10, FIG. 2B
  fold decrease in cellular anti-proliferation activity compared with CPD-10: > 15 -fold
HCC1428 cells [9]
  Annexin V+ population: 11.8%
Calu-1 cells [10]
  cell viability / anti-proliferation activity: much weaker cellular anti-proliferation activities
T47D cells [11]
  cell viability / anti-proliferation activity: much weaker cellular anti-proliferation activities
MCF7 cells [12]
  cell viability / anti-proliferation activity: much weaker cellular anti-proliferation activities
CCND
  degradation potency: much weaker degradation potencies
T47D cells [13]
  downstream inhibition potency: much weaker degradation potencies and downstream inhibition potencies
HCC1428 cells [14]
  cell apoptosis: much less effect on cell apoptosis
CDK4
  inhibition at 0.04 µM: < 30%
  inhibition at 0.2 µM: 50 to 80%
